2 compounds from patent publication US10918683B2, “Methods to reduce fat accumulation and oxidative damage in liver using green mango extracts and compounds obtained therefrom” (TCI CO., LTD., priority 2018, dated 2021) can be followed below.

The experiment relates to HepG2 cells. As to the kind of experiment: Oil red O staining of fat accumulation in oleic acid-treated HepG2 cells. Type of experiment: cell-based, human. Particulars: 10 μg/mL compound (dissolved in DMSO).

Method: HepG2 cells were cultured at 37° C. under 5% carbon dioxide in DMEM supplemented with 10% FBS and 1% penicillin/streptomycin, hereinafter referred to as DMEM culture medium.
To prepare the oil red O staining solution, the dye, oil red O, was first dissolved in 100% isopropanol thoroughly to prepare a 30 mg/mL oil red O stock solution. To obtain a ready-to-use oil red O staining solution, the stock solution was diluted with double deionized water to a concentration of 18 mg/mL and filtered through a 0.22 μm filter immediately before use.
To obtain a DMEM containing oleic acid-BSA conjugate, 10 mg/mL BSA and 28 μg/mL oleic acid were added to a DMEM with 2% FBS and 1% penicillin/streptomycin. The resulting mixture was stirred for about 30 minutes to facilitate the conjugation between oleic acid and BSA and the formation of conjugates.
The neutral fat content of cells was determined by oil red O staining. Prior to staining, the cells after indicated treatment were washed with PBS and then fixed with 10% formaldehyde for 30 minutes. The fixed cells were washed once with PBS and rinsed with 50% isopropanol for 15 seconds. Thereafter, the cells were stained with the oil red O staining solution for 1 hour. […] Alternatively, the intracellular dye was dissolved with 100% isopropanol and quantified by spectrophotometry. […]

As for `O=C(OCC1OC(OC(=O)c2cc(O)c(O)c(O)c2)C(OC(=O)c2cc(O)c(O)c(O)c2)C(OC(=O)c2cc(O)c(O)c(O)c2)C1OC(=O)c1cc(O)c(O)c(O)c1)c1cc(O)c(O)c(O)c1` (centres unmarked) [formula (Ib), 1,2,3,4,6-penta-O-galloyl-glucopyranoside], the “reduction of fat accumulation in HepG2 cells compared with oleic acid alone” value is about 44%.

`O=C(OCC1OC(OC(=O)c2cc(O)c(O)c(O)c2)C(OC(=O)c2cc(O)c(O)c(O)c2)C(OC(=O)c2cc(O)c(O)c(O)c2)C1OC(=O)c1cc(O)c(O)c(O)c1)c1ccc(O)cc1` (centres unmarked) [formula (Ia)]: the “reduction of fat accumulation in HepG2 cells compared with oleic acid alone” value was “approximately 33%”.
